Test results reported in article PMC7677715 (Redox Biology, 2020).

Columns and labels:
[1] = biological target: T1, α-tocopherol transfer protein (α-TTP) (Homo sapiens, UniProt P49638); assay: FRET ligand transfer to/from liposomes; assay type: binding
T1 sequence (P49638 1-278): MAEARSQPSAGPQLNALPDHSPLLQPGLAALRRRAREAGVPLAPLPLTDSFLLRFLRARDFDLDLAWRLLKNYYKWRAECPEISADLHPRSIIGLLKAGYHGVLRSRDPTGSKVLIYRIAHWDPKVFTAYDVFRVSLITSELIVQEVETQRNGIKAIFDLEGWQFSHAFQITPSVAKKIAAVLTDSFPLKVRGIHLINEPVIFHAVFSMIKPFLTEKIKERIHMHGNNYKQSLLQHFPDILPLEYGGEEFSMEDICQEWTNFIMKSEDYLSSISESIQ

[2] = biological target: T2, γ-TTP (α-tocopherol transfer protein A156L) (Homo sapiens, UniProt P49638, A156L); assay: X-ray crystal structure; assay type: binding
T2 sequence (P49638 48-278 A156L): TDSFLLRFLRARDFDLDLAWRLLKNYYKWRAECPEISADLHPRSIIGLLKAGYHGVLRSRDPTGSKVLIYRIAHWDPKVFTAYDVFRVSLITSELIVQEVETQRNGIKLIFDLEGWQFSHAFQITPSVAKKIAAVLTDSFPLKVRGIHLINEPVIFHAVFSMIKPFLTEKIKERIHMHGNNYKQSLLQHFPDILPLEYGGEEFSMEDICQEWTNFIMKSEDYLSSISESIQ

Kp [1] | Kd [2] | SMILES
4.05 |  | Cc1c(O)cc2c(c1C)O[C@](C)(CCC[C@H](C)CCC[C@H](C)CCCC(C)C)CC2 [γ-tocopherol]
 | 53.8 nM | Cc1c(O)cc2c(c1C)O[C@](C)(CCC[C@H](C)CCC[C@H](C)CCCC(C)C)CC2 [RRR-γ-tocopherol]
